# From PubChem BioAssay (NCI)
#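 Test compounds were applied to cells in 96-well plates for 48 hours at 5 doses. GI50 is the concentration that inhibits growth by half. The concentration for full growth arrest is given as TGI.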
# Assays:
# Assay in all cases: NCI-60 cell line screen, 48 h
# 786-0 renal = test system: 786-0 renal
# A498 renal = test system: A498 renal
# A549 NSCLC = test system: A549 NSCLC
# ACHN renal = test system: ACHN renal
# BT-549 breast = test system: BT-549 breast
# CAKI-1 renal = test system: CAKI-1 renal
# CCRF-CEM leukemia = test system: CCRF-CEM leukemia
# COLO 205 colon = test system: COLO 205 colon
# DU-145 prostate = test system: DU-145 prostate
# HCC-2998 colon = test system: HCC-2998 colon
# HCT-116 colon = test system: HCT-116 colon
# HCT-15 colon = test system: HCT-15 colon
# HL-60(TB) leukemia = test system: HL-60(TB) leukemia
# HOP-62 NSCLC = test system: HOP-62 NSCLC
# HS 578T breast = test system: HS 578T breast
# HT29 colon = test system: HT29 colon
# IGROV1 ovarian = test system: IGROV1 ovarian
# K-562 leukemia = test system: K-562 leukemia
# KM12 colon = test system: KM12 colon
# LOX IMVI melanoma = test system: LOX IMVI melanoma
# M14 melanoma = test system: M14 melanoma
# MALME-3M melanoma = test system: MALME-3M melanoma
# MCF7 breast = test system: MCF7 breast
# MDA-MB-231 breast = test system: MDA-MB-231 breast
# MDA-MB-435 = test system: MDA-MB-435
# MOLT-4 leukemia = test system: MOLT-4 leukemia
# NCI-H226 lung = test system: NCI-H226 lung
# NCI-H23 lung = test system: NCI-H23 lung
# NCI-H460 lung = test system: NCI-H460 lung
# NCI-H522 lung = test system: NCI-H522 lung
# NCI/ADR-RES ovarian = test system: NCI/ADR-RES ovarian
# OVCAR-3 ovarian = test system: OVCAR-3 ovarian
# OVCAR-4 ovarian = test system: OVCAR-4 ovarian
# OVCAR-5 ovarian = test system: OVCAR-5 ovarian
# OVCAR-8 ovarian = test system: OVCAR-8 ovarian
# PC-3 prostate = test system: PC-3 prostate
# RPMI-8226 leukemia = test system: RPMI-8226 leukemia
# RXF 393 renal = test system: RXF 393 renal
# SF-268 CNS = test system: SF-268 CNS
# SF-295 CNS = test system: SF-295 CNS
# SF-539 CNS = test system: SF-539 CNS
# SK-MEL-2 melanoma = test system: SK-MEL-2 melanoma
# SK-MEL-28 melanoma = test system: SK-MEL-28 melanoma
# SK-MEL-5 melanoma = test system: SK-MEL-5 melanoma
# SK-OV-3 ovarian = test system: SK-OV-3 ovarian
# SN12C renal = test system: SN12C renal
# SNB-19 CNS = test system: SNB-19 CNS
# SNB-75 CNS = test system: SNB-75 CNS
# SR leukemia = test system: SR leukemia
# SW-620 colon = test system: SW-620 colon
# T-47D breast = test system: T-47D breast
# TK-10 renal = test system: TK-10 renal
# U251 CNS = test system: U251 CNS
# UACC-257 melanoma = test system: UACC-257 melanoma
# UACC-62 melanoma = test system: UACC-62 melanoma
# UO-31 renal = test system: UO-31 renal
smiles,measurement,setting,value
CCCn1cc(C2=C(c3cn(C)c4ccccc34)C(=O)NC2=O)c2ccccc21,GI50,786-0 renal,1620 nM
same,TGI,786-0 renal,> 25000 nM
same,GI50,A498 renal,837 nM
same,TGI,A498 renal,4770 nM
same,GI50,A549 NSCLC,1860 nM
same,TGI,A549 NSCLC,> 25000 nM
same,GI50,ACHN renal,2040 nM
same,TGI,ACHN renal,7450 nM
same,GI50,BT-549 breast,1360 nM
same,TGI,BT-549 breast,5950 nM
same,GI50,CAKI-1 renal,937 nM
same,TGI,CAKI-1 renal,> 23200 nM
same,GI50,CCRF-CEM leukemia,790 nM
same,TGI,CCRF-CEM leukemia,> 11200 nM
same,GI50,COLO 205 colon,889 nM
same,TGI,COLO 205 colon,> 7080 nM
same,GI50,DU-145 prostate,1340 nM
same,TGI,DU-145 prostate,> 22400 nM
same,GI50,HCC-2998 colon,4850 nM
same,TGI,HCC-2998 colon,> 25000 nM
same,GI50,HCT-116 colon,1240 nM
same,TGI,HCT-116 colon,8520 nM
same,GI50,HCT-15 colon,688 nM
same,TGI,HCT-15 colon,> 19200 nM
same,GI50,HL-60(TB) leukemia,835 nM
same,TGI,HL-60(TB) leukemia,3640 nM
same,GI50,HOP-62 NSCLC,1690 nM
same,TGI,HOP-62 NSCLC,> 18400 nM
same,GI50,HS 578T breast,766 nM
same,TGI,HS 578T breast,16000 nM
same,GI50,HT29 colon,783 nM
same,TGI,HT29 colon,6160 nM
same,GI50,IGROV1 ovarian,4030 nM
same,TGI,IGROV1 ovarian,> 17000 nM
same,GI50,K-562 leukemia,392 nM
same,TGI,K-562 leukemia,> 25000 nM
same,GI50,KM12 colon,1140 nM
same,TGI,KM12 colon,7920 nM
same,GI50,LOX IMVI melanoma,2410 nM
same,TGI,LOX IMVI melanoma,11200 nM
same,GI50,M14 melanoma,1830 nM
same,TGI,M14 melanoma,> 18200 nM
same,GI50,MALME-3M melanoma,3440 nM
same,TGI,MALME-3M melanoma,9370 nM
same,GI50,MCF7 breast,565 nM
same,TGI,MCF7 breast,> 16200 nM
same,GI50,MDA-MB-231 breast,3910 nM
same,TGI,MDA-MB-231 breast,16900 nM
same,GI50,MDA-MB-435,99.2 nM
same,TGI,MDA-MB-435,691 nM
same,GI50,MOLT-4 leukemia,2450 nM
same,TGI,MOLT-4 leukemia,> 17800 nM
same,GI50,NCI-H226 lung,2690 nM
same,TGI,NCI-H226 lung,9780 nM
same,GI50,NCI-H23 lung,2670 nM
same,TGI,NCI-H23 lung,17800 nM
same,GI50,NCI-H460 lung,1040 nM
same,TGI,NCI-H460 lung,7390 nM
same,GI50,NCI-H522 lung,467 nM
same,TGI,NCI-H522 lung,4580 nM
same,GI50,NCI/ADR-RES ovarian,1320 nM
same,TGI,NCI/ADR-RES ovarian,24500 nM
same,GI50,OVCAR-3 ovarian,596 nM
same,TGI,OVCAR-3 ovarian,2350 nM
same,GI50,OVCAR-4 ovarian,3460 nM
same,TGI,OVCAR-4 ovarian,14200 nM
same,GI50,OVCAR-5 ovarian,6760 nM
same,TGI,OVCAR-5 ovarian,> 25000 nM
same,GI50,OVCAR-8 ovarian,2010 nM
same,TGI,OVCAR-8 ovarian,> 19600 nM
same,GI50,PC-3 prostate,1030 nM
same,TGI,PC-3 prostate,> 25000 nM
same,GI50,RPMI-8226 leukemia,1950 nM
same,TGI,RPMI-8226 leukemia,11600 nM
same,GI50,RXF 393 renal,663 nM
same,TGI,RXF 393 renal,2870 nM
same,GI50,SF-268 CNS,2640 nM
same,TGI,SF-268 CNS,> 16100 nM
same,GI50,SF-295 CNS,715 nM
same,TGI,SF-295 CNS,3150 nM
same,GI50,SF-539 CNS,689 nM
same,TGI,SF-539 CNS,2800 nM
same,GI50,SK-MEL-2 melanoma,702 nM
same,TGI,SK-MEL-2 melanoma,3240 nM
same,GI50,SK-MEL-28 melanoma,2090 nM
same,TGI,SK-MEL-28 melanoma,8690 nM
same,GI50,SK-MEL-5 melanoma,554 nM
same,TGI,SK-MEL-5 melanoma,4360 nM
same,GI50,SK-OV-3 ovarian,1220 nM
same,TGI,SK-OV-3 ovarian,> 19000 nM
same,GI50,SN12C renal,2430 nM
same,TGI,SN12C renal,6470 nM
same,GI50,SNB-19 CNS,5580 nM
same,TGI,SNB-19 CNS,> 25000 nM
same,GI50,SNB-75 CNS,458 nM
same,TGI,SNB-75 CNS,2090 nM
same,GI50,SR leukemia,352 nM
same,TGI,SR leukemia,9990 nM
same,GI50,SW-620 colon,968 nM
same,TGI,SW-620 colon,> 25000 nM
same,GI50,T-47D breast,897 nM
same,TGI,T-47D breast,7620 nM
same,GI50,TK-10 renal,3450 nM
same,TGI,TK-10 renal,22000 nM
same,GI50,U251 CNS,1170 nM
same,TGI,U251 CNS,5330 nM
same,GI50,UACC-257 melanoma,1800 nM
same,TGI,UACC-257 melanoma,> 25000 nM
same,GI50,UACC-62 melanoma,1630 nM
same,TGI,UACC-62 melanoma,5940 nM
same,GI50,UO-31 renal,1420 nM
same,TGI,UO-31 renal,12000 nM
